# Assay results from patent publication US20120309704A1, “COMPOSITIONS FOR TREATMENT OF CHEMORESISTANT AND/OR POTENTIALLY CHEMORESISTANT LEUKAEMIAS” (priority 2009, published 2012).
# How the values were obtained:
# [1] = tested on: ALL cell lines REH, RS4, 11 and 697 and primary ALL cells; test: MSC-mediated chemoresistance of ALL cell lines and primary ALL cells; assay type: cell-based, human
# Method: FIG. 4. hERG1 activity regulates the chemoresistance induced by stromal cells in leukaemic cells a). […] The percentage of Annexin V +/ PI− cells was evaluated after 48 hours of culture.
# For cell counting, after 48 hours of incubation at 37° C. and 5% di CO2, cells were recovered from the plates. We next evaluated the apoptosis. During apoptosis, a series of changes of plasma membrane occurs, one of these alterations of plasma membrane is the shift of phosphatidylserine (PS) from the inner to the outer surface of the cell. The recognition of PS by macrophage allows them to engulf the apoptotic cell, preventing the inflammatory process. The analysis of PS on the plasma membrane of apoptotic cells is performed by using annexin V-fluorescein and propidium iodide (PI) assay (Annexin-V-Fluos Staining Kit, Roche).
# We then identified three cell populations: i) viable cells (annexin V-/propidium iodide-), ii) apoptotic cells (early apoptosis) (annexin V+), and iii) cells in late apoptosis or necrotic (annexin V+/propidium iodide+). All the cell lines (697, RS, REH) were cultured in the absence and in the presence of human bone marrow stromal cells (MSC) in order to reproduce as closely as possible the condition that occurs in the bone marrow.
# After 48 hours of incubation, cells were separated from the stroma and processed for the analysis of apotosis.
# [2] = tested on: human leukaemic cells REH; test: In vivo model of human leukaemia: REH cells inoculated into NOD/SCID mice
# Method: FIG. 2. Effect of corticosteroids, inhibitors of hERG1 and of the combination corticosteroids/hERG1 inhibitors in an in vivo model of human leukaemia disease (human leukaemic cells REH inoculated into NOD/SCID mice). Cells were inoculated by injection into the caudal vein and seven days after the inoculum, animals were treated with E4031, Dexamethasone, Dexamethasone+E4031 for two weeks; control mice were treated, with the same schedule, solely with saline solution. At the end of the two weeks of treatment, animals were sacrificed and the spleen and bone marrow were removed. Bone marrow engraftment was evaluated by measuring the percentage of hCD45^+ cells versus mCD45^+ cells by flow cytometry. For the evaluation of apoptosis, the Tunel assay was performed on the histological sections of the treated animals.
# In FIG. 2 the effects of corticosteroids, hERG1 inhibitors and combination of corticosteroids/hERG1 inhibitors in an in vivo model of human leukaemic disease (human leukaemic cells REH inoculated in NOD / SCID mice) is shown. The cells were inoculated by injection into the tail vein and seven days after injection, the animals were treated with E4031, dexamethasone, dexamethasone+E4031 for two weeks; the control mice were treated, according to the same protocol, only with saline.
# At the end of two weeks of treatment the animals were sacrificed and the spleens and bone marrows were removed. The bone marrow engraftment was assessed by measuring the percentage of hCD45+cells versus mCD45+cells by flow cytometry. The Tunel assay for evaluation of apoptosis was performer on bone marrow histological sections from the control and treated animals.
# [3] = tested on: AML cell lines and primary samples; conditions: administration of hERG1 blockers; cited from earlier work
# [4] = tested on: ALL(3), ALL(4), ALL(6) cells; test: Annexin V/propidium iodide apoptosis of primary ALL cells cultured in the absence or presence of MSC; assay type: cell-based, human; conditions: FIG. 1C, co-culture with stromal cells
# Method: The analysis is performed with the flow cytometer FACScan (Becton Dickinson). […] We next evaluated the apoptosis. […] The analysis of PS on the plasma membrane of apoptotic cells is performed by using annexin V-fluorescein and propidium iodide (PI) assay (Annexin-V-Fluos Staining Kit, Roche). The protocol of annexin requie, first, the preparation of the reaction mix, containing 20 μl of annexin and 20 μl of propidium iodide diluted in 1 ml of incubation buffer (1 ml of such mix is enough for 10 samples). About 10^6 cells are washed with PBS and centrifuged at 200 g for 5 minutes; the cell pellet is then resuspend in 100 μl of the solution previously described and incubated for 10-15 min at 15-25° C. The samples are resuspended in 500 μl of incubation buffer, before proceeding to flow cytometry analysis. […] After 48 hours of incubation, cells were separated from the stroma and processed for the analysis of apotosis.
smiles,measurement,setting,value
"Cc1cccc(CCN2CCC(C(=O)c3ccc(NS(C)(=O)=O)cc3)CC2)n1.Cl.Cl [E4031, N-[4-[[1-[2-(6-Methyl-2-pyridyl)ethyl]-4-piperidinyl]carbonyl]phenyl]metanesolfonammide dihydrochloride]",MSC mediated chemoresistance,[1],overcome
same,effect on engraftment compared with dexamethasone alone,[2],higher than that produced by dexamethasone alone
same,apoptosis of ALL cells in the bone marrow,[2]; Tunel assay,increase
same,engraftment in the bone marrow,"[2]; treatment for two weeks starting seven days after inoculum, hCD45+ versus mCD45+ cells",reduced
"CN(CCN(C)S(=O)(=O)c1ccc(NS(C)(=O)=O)cc1)c1nc2ccccc2n1C.Cl [Way 123,398, N-metil-N-(2-(metil(1-metil-1H-benzimidazol-2-il)amino)etil)((metilsolfonil)amino)benzensolfonammide HCl]",MSC mediated chemoresistance,[1],overcome
same,cellular growth,[3],impairs cellular growth
COc1cccc2c1C(=O)c1c(O)c3c(c(O)c1C2=O)C[C@@](O)(C(=O)CO)C[C@@H]3O[C@H]1C[C@H](N)[C@H](O)[C@H](C)O1 [doxorubicin],responsiveness of leukaemic cells co-cultured with stromal cells compared to leukaemic cells alone,[4],significantly less responsive
"CC[C@H]1OC(=O)[C@H](C)[C@@H](O[C@H]2C[C@@](C)(OC)[C@@H](O)[C@H](C)O2)[C@H](C)[C@@H](O[C@@H]2O[C@H](C)C[C@H](N(C)C)[C@H]2O)[C@](C)(O)C[C@@H](C)C(=O)[C@H](C)[C@@H](O)[C@]1(C)O [erythromycin, 6-(4-dimethylamino-3-hydroxy-6-methyl-Ossan-2-yl) oxy-14-ethyl-7,12,13-triidrossi-4-(5-hydroxy-4 methoxy-4,6-dimethyl -Ossan-2-yl) oxy-3,5,7,9,11,13-esametil ossaciclotetradecan-1-2,10-dione]",MSC mediated chemoresistance,[1],overcome
"O=C1NCCN1CCN1CCC(c2cn(-c3ccc(F)cc3)c3ccc(Cl)cc23)CC1 [sertindole, 1-(2-{4-[5-chloro-1-(4-FLUORO-PHENYL)-1H-indole-3-IL]-IL-1-Piperidine}-ethyl)-imidazolidin-2-ONE, 1-[2-[4-[5-Chloro-1-(4-fluorophenyl)-1H-indole-3-a]-1-piperidinyl]ethyl]-2-Imidazolidinone]",MSC mediated chemoresistance,[1],overcome
